Results as given in patent US20080269342A1, “Pleuromutilin Derivatives and Its Use” (priority 2005, published 2008).

How the values were obtained:
S. pneumoniae = assay: in vitro antibacterial activity; assay type: cell-based; settings: primary respiratory pathogen
[1] = system: representative Gram-positive and Gram-negative pathogens; assay: in vivo activity against representative pathogens; settings: pathogens associated with respiratory tract and skin and skin structure infections, including isolates resistant to existing classes of antimicrobials
M. catarrhalis = assay: in vitro antibacterial activity; assay type: cell-based; settings: primary respiratory pathogen
M. pneumoniae = assay: in vitro activity against atypical pathogens; assay type: cell-based; settings: atypical pathogen
H. influenzae = assay: in vitro antibacterial activity; assay type: cell-based; settings: primary respiratory pathogen
S. aureus = assay: in vitro antibacterial activity; assay type: cell-based
C. pneumoniae = assay: in vitro activity against atypical pathogens; assay type: cell-based; settings: atypical pathogen
[2] = system: isolates carrying resistance determinants to other antibiotics; assay: in vitro activity against resistant isolates of respiratory pathogens; assay type: cell-based; settings: penicillin-, macrolide-, methicillin- or levofloxacin-resistant phenotypes
anaerobic organisms = assay: in vitro activity against anaerobic organisms; assay type: cell-based
N. meningitidis = assay: in vitro activity against Neisserria sp.; assay type: cell-based
N. gonorrhoeae = assay: in vitro activity against Neisserria sp.; assay type: cell-based; settings: both ciprofloxacin susceptible and resistant
L. pneumophila = assay type: cell-based; settings: atypical pathogen
S. pyogenes = assay: in vitro antibacterial activity; assay type: cell-based
F. tularensis = assay type: cell-based; settings: biothreat organism
[3] = system: representative Gram-positive and Gram-negative pathogens; assay: in vitro activity against representative pathogens; assay type: cell-based; settings: pathogens associated with respiratory tract and skin and skin structure infections, including isolates resistant to existing classes of antimicrobials
[4] = primary respiratory pathogen, primary pathogen of skin and skin structure infections

Structure (SMILES): C=C[C@]1(C)C[C@@H](OC(=O)NC(=O)O[C@H]2C[C@H](N)C2)[C@]2(C)[C@H](C)CC[C@]3(CCC(=O)[C@H]32)[C@@H](C)[C@@H]1O [Compound I, trans-3-aminocyclobutyl (1S,2R,3S,4S,6R,7R,8R,14R)-4-ethenyl-3-hydroxy-2,4,7,14-tetramethyl-9-oxotricyclo[5.4.3.01,8]tetradec-6-yl imidodicarbonate]
- in vitro antibacterial activity (S. pneumoniae): good in vitro antibacterial activity
- in vivo activity [1]: good
- in vitro antibacterial activity (M. catarrhalis): good in vitro antibacterial activity
- in vitro activity (M. pneumoniae): good in vitro activity
- in vitro antibacterial activity (H. influenzae): good in vitro antibacterial activity
- activity against isolates carrying resistance determinants to other antibiotics (S. aureus; S. aureus isolates, penicillin-, macrolide-, methicillin- or levofloxacin-resistant phenotypes): retained
- in vitro antibacterial activity (S. aureus; [4]): good in vitro antibacterial activity
- in vitro activity (C. pneumoniae): good in vitro activity
- activity against isolates carrying resistance determinants to other antibiotics [2]: activity
- in vitro activity (anaerobic organisms): good in vitro activity
- in vitro activity (N. meningitidis): good in vitro activity
- in vitro activity (N. gonorrhoeae): good in vitro activity
- in vitro activity (L. pneumophila): good in vitro activity
- activity against isolates carrying resistance determinants to other antibiotics (S. pyogenes; S. pyogenes isolates, penicillin-, macrolide-, methicillin- or levofloxacin-resistant phenotypes): retained
- in vitro antibacterial activity (S. pyogenes; [4]): good in vitro antibacterial activity
- in vitro activity (F. tularensis): good in vitro activity
- in vitro activity [3]: good
